Results reported in patent US20060069132A1, “Azolecarboxamide herbicides” (priority 2004, published 2006).

Tests used:
wheat = assay: Test B postemergence herbicide test; format: in vivo, Triticum aestivum; parameters: key to Wheat plant response rating: 0 = no effect, 100 = complete control; conditions: postemergence, visual rating, scale 0 (no effect) to 100 (complete control)
Method in brief: (§1)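 Read-out: visual comparison with controls, scored 0 to 100, where 100 means complete control and 0 no effect. Formulated chemicals were applied postemergence to plants 2–18 cm tall (1- to 4-leaf), or to flooded-paddy plants at the 2-leaf stage, then held 13 to 15 days under glass.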

morningglory [1] = assay: Test A pre-/postemergence herbicide test; format: in vivo, Ipomoea spp.
Method in brief: (§2)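 Sandy loam soil given preemergence directed spray; plants at 2 to 10 cm, one- to two-leaf stage, sprayed to runoff postemergence, compounds in non-phytotoxic solvent with surfactant. Injury rated visually versus untreated controls after about ten greenhouse days, 0 (no effect) to 100 (complete control); dash means not tested.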

giant foxtail [2] = assay: Test B pre-/postemergence herbicide test; format: in vivo, Setaria faberi; conditions: for Plant response rating, Foxtail, Giant: preemergence; for Foxtail, Giant plant response rating: postemergence, visual rating, scale 0 (no effect) to 100 (complete control)
Method in brief: (§3)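 Seeds were planted and treated preemergence with compounds formulated in a non-phytotoxic solvent mixture containing surfactant, while plants at the 1- to 4-leaf stage (2 to 18 cm) received postemergence sprays. Flooded paddy plants were grown to the 2-leaf stage. After 13 to 15 days in a greenhouse, injury was visually rated 0–100 against untreated controls.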

barnyardgrass [3] = assay: Test A pre-/postemergence herbicide test; format: in vivo, Echinochloa crus-galli
Method in brief: as §2

cocklebur = assay: Test B pre-/postemergence herbicide test; format: in vivo, Xanthium strumarium; conditions: for Plant response rating, Cocklebur: preemergence; for Cocklebur plant response rating: postemergence, visual rating, scale 0 (no effect) to 100 (complete control)
Method in brief: (§4)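 Evaluation is visual, comparing treated with control plants on a scale where 0 means no effect and 100 means full control. Treatments were preemergence, or postemergence on seedlings 2–18 cm tall, and held 13–15 days in the greenhouse.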

velvetleaf [4] = assay: Test A pre-/postemergence herbicide test; format: in vivo, Abutilon theophrasti
Method in brief: as §2

large crabgrass [5] = assay: Test B pre-/postemergence herbicide test; format: in vivo, Digitaria sanguinalis; conditions: for Plant response rating, Crabgrass, Large: preemergence; for Crabgrass, Large plant response rating: postemergence, visual rating, scale 0 (no effect) to 100 (complete control)
Method in brief: as §3

velvetleaf [6] = assay: Test B pre-/postemergence herbicide test; format: in vivo, Abutilon theophrasti; conditions: for Plant response rating, Velvetleaf: preemergence; for Velvetleaf plant response rating: postemergence, visual rating, scale 0 (no effect) to 100 (complete control)
Method in brief: as §3

blackgrass = assay: Test B postemergence herbicide test; format: in vivo, Alopecurus myosuroides; conditions: postemergence, visual rating, scale 0 (no effect) to 100 (complete control)
Method in brief: (§5)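 Each value is a visual 0–100 response rating taken against controls 13 to 15 days after treatment in the greenhouse. Plants received formulated chemical postemergence at the 1- to 4-leaf stage or, in flooded paddy, at the 2-leaf stage.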

corn = assay: Test B pre-/postemergence herbicide test; format: in vivo, Zea mays; conditions: for Plant response rating, Corn: preemergence; for Corn plant response rating: postemergence, visual rating, scale 0 (no effect) to 100 (complete control)
Method in brief: as §3

ducksalad = assay: Test B flooded paddy test; format: in vivo, Heteranthera limosa; conditions: 1000 g ai/ha, visual rating, scale 0 to 100 (0 no effect, 100 complete control), 13 to 15 days
Method in brief: as §5

rice = assay: Test B flooded paddy test; format: in vivo, Oryza sativa; conditions: 1000 g ai/ha, visual rating, scale 0 to 100 (0 no effect, 100 complete control), 13 to 15 days
Method in brief: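 Visual ratings, 0 (no effect) to 100 (complete control), made versus controls after 13–15 d greenhouse. Paddy plants treated at 2-leaf stage; postemergence plants at 1- to 4-leaf stage, 2–18 cm tall.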

barnyardgrass [7] = assay: Test B pre-/postemergence herbicide test; format: in vivo, Echinochloa crus-galli; conditions: for Plant response rating, Barnyardgrass: preemergence; for Barnyardgrass plant response rating: postemergence, visual rating, scale 0 (no effect) to 100 (complete control)
Method in brief: as §4

barnyardgrass [8] = assay: Test B flooded paddy test; format: in vivo, Echinochloa crus-galli; conditions: 1000 g ai/ha, visual rating, scale 0 to 100 (0 no effect, 100 complete control), 13 to 15 days
Method in brief: as §5

large crabgrass [9] = assay: Test A pre-/postemergence herbicide test; format: in vivo, Digitaria sanguinalis
Method in brief: as §2

giant foxtail [10] = assay: Test A pre-/postemergence herbicide test; format: in vivo, Setaria faberi
Method in brief: as §2

redroot pigweed = assay: Test A pre-/postemergence herbicide test; format: in vivo, Amaranthus retroflexus
Method in brief: as §2

[11] = tested on: small flower umbrella sedge; assay: Test B flooded paddy test; format: in vivo, Cyperus difformis; conditions: 1000 g ai/ha, visual rating, scale 0 to 100 (0 no effect, 100 complete control), 13 to 15 days
Method in brief: as §5

pigweed = assay: Test B pre-/postemergence herbicide test; format: in vivo, Amaranthus retroflexus; conditions: for Plant response rating, Pigweed: preemergence; for Pigweed plant response rating: postemergence, visual rating, scale 0 (no effect) to 100 (complete control)
Method in brief: as §3

lambsquarters = assay: Test B pre-/postemergence herbicide test; format: in vivo, Chenopodium album; conditions: for Plant response rating, Lambsquarters: preemergence; for Lambsquarters plant response rating: postemergence, visual rating, scale 0 (no effect) to 100 (complete control)
Method in brief: as §3

Surinam grass = assay: Test B pre-/postemergence herbicide test; format: in vivo, Urochloa decumbens; conditions: for Plant response rating, Surinam Grass: preemergence; for Surinam Grass plant response rating: postemergence, visual rating, scale 0 (no effect) to 100 (complete control)
Method in brief: as §3

morningglory [12] = assay: Test B pre-/postemergence herbicide test; format: in vivo, Ipomoea coccinea; conditions: for Morningglory plant response rating: postemergence, visual rating, scale 0 (no effect) to 100 (complete control)
Method in brief: as §4

wild oat = assay: Test B postemergence herbicide test; format: in vivo, Avena fatua; conditions: postemergence, visual rating, scale 0 (no effect) to 100 (complete control)
Method in brief: as §1

[13] = Postemergence, 500 g ai/ha, 0 to 100 scale, 0 no effect, 100 complete control
[14] = Postemergence, 2000 g ai/ha, 0 to 100 scale, 0 no effect, 100 complete control
[15] = Preemergence, 500 g ai/ha, visual rating, 0 to 100 scale (0 no effect, 100 complete control)
[16] = Preemergence, 2000 g ai/ha, visual rating, 0 to 100 scale (0 no effect, 100 complete control)
[17] = 500 g ai/ha, visual rating 0-100, 0 no effect, 100 complete control
[18] = 125 g ai/ha, 0 to 100 scale, 0 is no effect, 100 is complete control
[19] = preemergence, 500 g ai/ha, visual injury, 0 to 100 scale (0 no effect, 100 complete control)

CCCCNS(=O)(=O)c1cccc(NC(=O)c2cc(C(C)(C)C)nn2C)c1 [Compound 125]
10: Surinam Grass plant response rating (Surinam grass; 500 g ai/ha)
0: Wheat plant response rating (wheat; 125 g ai/ha) | Wheat plant response rating (wheat; 500 g ai/ha) | Morningglory plant response rating (morningglory [1]; [13]) | Plant response rating, Morningglory (morningglory [1]; [14]) | Morningglory plant response rating (morningglory [1]; [15]) | Morningglory plant response rating (morningglory [1]; [16]) | Plant response rating, Foxtail, Giant (giant foxtail [2]; [17]) | Foxtail, Giant plant response rating (giant foxtail [2]; 125 g ai/ha) | Foxtail, Giant plant response rating (giant foxtail [2]; 500 g ai/ha) | Plant response rating, Foxtail, Giant (giant foxtail [2]; [18]) | Barnyardgrass plant response rating (barnyardgrass [3]; [13]) | Plant response rating, Barnyardgrass (barnyardgrass [3]; [14]) | Barnyardgrass plant response rating (barnyardgrass [3]; [15]) | Barnyardgrass plant response rating (barnyardgrass [3]; [16]) | Plant response rating, Cocklebur (cocklebur; [17]) | Cocklebur plant response rating (cocklebur; 125 g ai/ha) | Cocklebur plant response rating (cocklebur; 500 g ai/ha) | Plant response rating, Cocklebur (cocklebur; [18]) | Velvetleaf plant response rating (velvetleaf [4]; [13]) | Plant response rating, Velvetleaf (velvetleaf [4]; [14]) | Velvetleaf plant response rating (velvetleaf [4]; [16]) | Velvetleaf plant response rating (velvetleaf [4]; [19]) | Plant response rating, Crabgrass, Large (large crabgrass [5]; [17]) | Crabgrass, Large plant response rating (large crabgrass [5]; 125 g ai/ha) | Crabgrass, Large plant response rating (large crabgrass [5]; 500 g ai/ha) | Plant response rating, Crabgrass, Large (large crabgrass [5]; [18]) | Plant response rating, Velvetleaf (velvetleaf [6]; [17]) | Velvetleaf plant response rating (velvetleaf [6]; 125 g ai/ha) | Velvetleaf plant response rating (velvetleaf [6]; 500 g ai/ha) | Plant response rating, Velvetleaf (velvetleaf [6]; [18]) | Blackgrass plant response rating (blackgrass; 125 g ai/ha) | Blackgrass plant response rating (blackgrass; 500 g ai/ha) | Plant response rating, Corn (corn; [17]) | Corn plant response rating (corn; 125 g ai/ha) | Corn plant response rating (corn; 500 g ai/ha) | Plant response rating, Corn (corn; [18]) | Ducksalad plant response rating (ducksalad) | Rice plant response rating (rice) | Plant response rating, Barnyardgrass (barnyardgrass [7]; [17]) | Barnyardgrass plant response rating (barnyardgrass [7]; 125 g ai/ha) | Barnyardgrass plant response rating (barnyardgrass [7]; 500 g ai/ha) | Plant response rating, Barnyardgrass (barnyardgrass [7]; [18]) | Barnyardgrass plant response rating (barnyardgrass [8]) | Crabgrass, Large plant response rating (large crabgrass [9]; [13]) | Plant response rating, Crabgrass, Large (large crabgrass [9]; [14]) | Crabgrass, Large plant response rating (large crabgrass [9]; [15]) | Crabgrass, Large plant response rating (large crabgrass [9]; [16]) | Foxtail, Giant plant response rating (giant foxtail [10]; [13]) | Plant response rating, Foxtail, Giant (giant foxtail [10]; [14]) | Foxtail, Giant plant response rating (giant foxtail [10]; [15]) | Foxtail, Giant plant response rating (giant foxtail [10]; [16]) | Pigweed plant response rating (redroot pigweed; [16]) | Pigweed plant response rating (redroot pigweed; [19]) | Sedge, Umbrella plant response rating [11] | Plant response rating, Pigweed (pigweed; [17]) | Pigweed plant response rating (pigweed; 125 g ai/ha) | Pigweed plant response rating (pigweed; 500 g ai/ha) | Plant response rating, Pigweed (pigweed; [18]) | Plant response rating, Lambsquarters (lambsquarters; [17]) | Lambsquarters plant response rating (lambsquarters; 125 g ai/ha) | Plant response rating, Lambsquarters (lambsquarters; [18]) | Plant response rating, Surinam Grass (Surinam grass; [17]) | Surinam Grass plant response rating (Surinam grass; 125 g ai/ha) | Plant response rating, Surinam Grass (Surinam grass; [18]) | Morningglory plant response rating (morningglory [12]; 125 g ai/ha) | Morningglory plant response rating (morningglory [12]; 500 g ai/ha) | Plant response rating, Morningglory (morningglory [12]; preemergence, 125 g ai/ha, 0 to 100 scale, 0 is no effect, 100 is complete control) | Oat, Wild plant response rating (wild oat; 125 g ai/ha) | Oat, Wild plant response rating (wild oat; 500 g ai/ha)
20: Pigweed plant response rating (redroot pigweed; [13]) | Plant response rating, Pigweed (redroot pigweed; [14]) | Lambsquarters plant response rating (lambsquarters; 500 g ai/ha)
